Results: US10550111B2, “Pyrimidine urea compound containing isoxazolines and use thereof” (SHENYANG SINOCHEM AGROCHEMICALS R&D CO., LTD, priority 2014, dated 2020)

Tests used:
Assay type in all cases: in vivo
[1] = system: Abutilon theophrasti Medic.; test: Bioassay of herbicidal activity in greenhouse (further screening)
Summary of the method: (§1)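 Visual growth inhibition rating (0 no effect to 100 all weeds dead or not emerged) after track-sprayer application (500 L/hm²) of emulsifiable concentrate. Treatments either pre-emergence, 24 h after sowing, or post-emergence at 2–3-leaf grass and 2–4-leaf broad-leaf stage, greenhouse-grown.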

[2] = system: Echinochloa crus-galli (L.) Beauv.; test: as above
Summary of the method: as §1

[3] = system: Setaria glauca (L.) Beauv.; test: as above
Summary of the method: as §1

Zinnia elegans Jacq. = test: as above
Summary of the method: as §1

[4] = system: broad-leaf weeds and grass weeds; test: General screening of herbicidal activity in greenhouse; conditions: 1000 g a.i./hm^2
Summary of the method: as §1

Row | Compound | pre-emergence and post-emergence herbicidal activity against broad-leaf weeds and grass weeds [4] | Growth inhibition rate, Post-emergence treatment, Abutilon theophrasti Medic. ([1]; dose 37.5 g a.i./hm^2) [%] | Growth inhibition rate, Post-emergence treatment, Abutilon theophrasti Medic. ([1]; dose 150 g a.i./hm^2) [%] | Growth inhibition rate, Post-emergence treatment, Abutilon theophrasti Medic. ([1]; dose 600 g a.i./hm^2) [%] | Growth inhibition rate, Pre-emergence treatment, Abutilon theophrasti Medic. ([1]; dose 37.5 g a.i./hm^2) [%] | Growth inhibition rate, Pre-emergence treatment, Abutilon theophrasti Medic. ([1]; dose 150 g a.i./hm^2) [%] | Growth inhibition rate, Pre-emergence treatment, Abutilon theophrasti Medic. ([1]; dose 600 g a.i./hm^2) [%] | Growth inhibition rate, Post-emergence treatment, Echinochloa crus-galli (L.) Beauv. ([2]; dose 37.5 g a.i./hm^2) [%] | Growth inhibition rate, Post-emergence treatment, Echinochloa crus-galli (L.) Beauv. ([2]; dose 150 g a.i./hm^2) [%] | Growth inhibition rate, Post-emergence treatment, Echinochloa crus-galli (L.) Beauv. ([2]; dose 600 g a.i./hm^2) [%] | Growth inhibition rate, Pre-emergence treatment, Echinochloa crus-galli (L.) Beauv. ([2]; dose 37.5 g a.i./hm^2) [%] | Growth inhibition rate, Pre-emergence treatment, Echinochloa crus-galli (L.) Beauv. ([2]; dose 150 g a.i./hm^2) [%] | Growth inhibition rate, Pre-emergence treatment, Echinochloa crus-galli (L.) Beauv. ([2]; dose 600 g a.i./hm^2) [%] | Growth inhibition rate, Post-emergence treatment, Setaria glauca (L.) Beauv. ([3]; dose 37.5 g a.i./hm^2) [%] | Growth inhibition rate, Post-emergence treatment, Setaria glauca (L.) Beauv. ([3]; dose 150 g a.i./hm^2) [%] | Growth inhibition rate, Post-emergence treatment, Setaria glauca (L.) Beauv. ([3]; dose 600 g a.i./hm^2) [%] | Growth inhibition rate, Pre-emergence treatment, Setaria glauca (L.) Beauv. ([3]; dose 37.5 g a.i./hm^2) [%] | Growth inhibition rate, Pre-emergence treatment, Setaria glauca (L.) Beauv. ([3]; dose 150 g a.i./hm^2) [%] | Growth inhibition rate, Pre-emergence treatment, Setaria glauca (L.) Beauv. ([3]; dose 600 g a.i./hm^2) [%] | Growth inhibition rate, Post-emergence treatment, Zinnia elegans Jacq. (Zinnia elegans Jacq.; dose 37.5 g a.i./hm^2) [%] | other results
1 | CCOCCOC(=O)C1(C)CC(c2cc(-n3c(=O)cc(C(F)(F)F)n(C)c3=O)c(F)cc2Cl)=NO1 (centres unmarked) [Compound 15] | good |  |  |  |  |  |  |  |  |  |  |  |  |  |  |  |  |  |  |  | Growth inhibition rate, Post-emergence treatment, Abutilon theophrasti Medic. ([1]; dose 7.5 g a.i./hm^2): 65%; Growth inhibition rate, Post-emergence treatment, Abutilon theophrasti Medic. ([1]; dose 15 g a.i./hm^2): 100%; Growth inhibition rate, Post-emergence treatment, Abutilon theophrasti Medic. ([1]; dose 30.0 g a.i./hm^2): 100%; Growth inhibition rate, Post-emergence treatment, Abutilon theophrasti Medic. ([1]; dose 60.0 g a.i./hm^2): 100%; Growth inhibition rate, Post-emergence treatment, Abutilon theophrasti Medic. ([1]; dose 120.0 g a.i./hm^2): 100%; Growth inhibition rate, Post-emergence treatment, Echinochloa crus-galli (L.) Beauv. ([2]; dose 7.5 g a.i./hm^2): 70%; Growth inhibition rate, Post-emergence treatment, Echinochloa crus-galli (L.) Beauv. ([2]; dose 15 g a.i./hm^2): 85%; Growth inhibition rate, Post-emergence treatment, Echinochloa crus-galli (L.) Beauv. ([2]; dose 30.0 g a.i./hm^2): 100%; Growth inhibition rate, Post-emergence treatment, Echinochloa crus-galli (L.) Beauv. ([2]; dose 60.0 g a.i./hm^2): 100%; Growth inhibition rate, Post-emergence treatment, Echinochloa crus-galli (L.) Beauv. ([2]; dose 120.0 g a.i./hm^2): 100%; Growth inhibition rate, Post-emergence treatment, Setaria glauca (L.) Beauv. ([3]; dose 7.5 g a.i./hm^2): 75%; Growth inhibition rate, Post-emergence treatment, Setaria glauca (L.) Beauv. ([3]; dose 15 g a.i./hm^2): 98%; Growth inhibition rate, Post-emergence treatment, Setaria glauca (L.) Beauv. ([3]; dose 30.0 g a.i./hm^2): 100%; Growth inhibition rate, Post-emergence treatment, Setaria glauca (L.) Beauv. ([3]; dose 60.0 g a.i./hm^2): 100%; Growth inhibition rate, Post-emergence treatment, Setaria glauca (L.) Beauv. ([3]; dose 120.0 g a.i./hm^2): 100%; Growth inhibition rate, Post-emergence treatment, Zinnia elegans Jacq. (Zinnia elegans Jacq.; dose 7.5 g a.i./hm^2): 100%; Growth inhibition rate, Post-emergence treatment, Zinnia elegans Jacq. (Zinnia elegans Jacq.; dose 15 g a.i./hm^2): 100%; Growth inhibition rate, Post-emergence treatment, Zinnia elegans Jacq. (Zinnia elegans Jacq.; dose 30.0 g a.i./hm^2): 100%; Growth inhibition rate, Post-emergence treatment, Zinnia elegans Jacq. (Zinnia elegans Jacq.; dose 60.0 g a.i./hm^2): 100%; Growth inhibition rate, Post-emergence treatment, Zinnia elegans Jacq. (Zinnia elegans Jacq.; dose 120.0 g a.i./hm^2): 100%
2 | CCCS(=O)(=O)OCC1(C)CC(c2cc(-n3c(=O)cc(C(F)(F)F)n(C)c3=O)c(F)cc2Cl)=NO1 (centres unmarked) [Compound 90] | good | 100 | 100 | 100 | 0 | 10 | 30 | 15 | 35 | 40 | 0 | 10 | 25 | 25 | 60 | 80 | 5 | 20 | 50 | 98 | Growth inhibition rate, Post-emergence treatment, Zinnia elegans Jacq. (Zinnia elegans Jacq.; dose 150 g a.i./hm^2): 100%; Growth inhibition rate, Post-emergence treatment, Zinnia elegans Jacq. (Zinnia elegans Jacq.; dose 600 g a.i./hm^2): 100%; Growth inhibition rate, Pre-emergence treatment, Zinnia elegans Jacq. (Zinnia elegans Jacq.; dose 37.5 g a.i./hm^2): 5%; Growth inhibition rate, Pre-emergence treatment, Zinnia elegans Jacq. (Zinnia elegans Jacq.; dose 150 g a.i./hm^2): 30%; Growth inhibition rate, Pre-emergence treatment, Zinnia elegans Jacq. (Zinnia elegans Jacq.; dose 600 g a.i./hm^2): 80%
3 | CCCCOC(=O)C1(C)CC(c2cc(-n3c(=O)cc(C(F)(F)F)n(C)c3=O)ccc2Cl)=NO1 (centres unmarked) [Compound 286] | good | 90 | 100 | 100 | 0 | 0 | 15 | 20 | 60 | 75 | 0 | 5 | 15 | 15 | 70 | 75 | 0 | 10 | 30 | 85 | Growth inhibition rate, Post-emergence treatment, Zinnia elegans Jacq. (Zinnia elegans Jacq.; dose 150 g a.i./hm^2): 100%; Growth inhibition rate, Post-emergence treatment, Zinnia elegans Jacq. (Zinnia elegans Jacq.; dose 600 g a.i./hm^2): 100%; Growth inhibition rate, Pre-emergence treatment, Zinnia elegans Jacq. (Zinnia elegans Jacq.; dose 37.5 g a.i./hm^2): 0%; Growth inhibition rate, Pre-emergence treatment, Zinnia elegans Jacq. (Zinnia elegans Jacq.; dose 150 g a.i./hm^2): 0%; Growth inhibition rate, Pre-emergence treatment, Zinnia elegans Jacq. (Zinnia elegans Jacq.; dose 600 g a.i./hm^2): 10%
